In patent US20220062240A1, “METHODS OF TREATING CANCER USING A CLK INHIBITOR” (BioSplice Therapeutics, Inc., priority 2018, published 2022):
Read-outs that look alike come from different tables or passages of the source.

Tests used:
CLK2 = molecular target: T1, CLK2 (Homo sapiens, UniProt P49760); assay: CLK2 kinase activity assay (Z-lyte, Ser/Thr 6 peptide); type: biochemical; details: recombinant CLK2 kinase, ATP 60 μM; read-out: EC50
T1 construct: purchased Thermo Fisher (Life Technologies), Z'-LYTE Kinase Assay Kits
Protocol: All reactions were performed in duplicate.

BT-549 = assay: CellTiter-Glo Viability Assay, breast cancer; type: cell-based; details: Homo sapiens, 96 h; BT-549, breast cancer, four days; read-out: EC50
CAMA1 = assay: CellTiter-Glo Viability Assay, breast cancer; type: cell-based; details: Homo sapiens, CAMA-1, 96 h; CAMA1, breast cancer, four days; read-out: EC50
DU4475 = assay: CellTiter-Glo Viability Assay, breast cancer; type: cell-based; details: Homo sapiens, DU-4475, 96 h; DU4475, breast cancer, four days; read-out: EC50
HCC1599 = assay: CellTiter-Glo Viability Assay, breast cancer; type: cell-based; details: Homo sapiens, 96 h; HCC1599, breast cancer, four days; read-out: EC50
MCF7 = assay: CellTiter-Glo Viability Assay, breast cancer; type: cell-based; details: Homo sapiens, 96 h; MCF7, breast cancer, four days; read-out: EC50
MDA-MB-231-Luc = assay: CellTiter-Glo Viability Assay, breast cancer; type: cell-based; details: Homo sapiens, 96 h; MDA-MB-231-Luc, breast cancer, four days; read-out: EC50
T47D = assay: CellTiter-Glo Viability Assay, breast cancer; type: cell-based; details: Homo sapiens, 96 h, breast cancer, four days, read-out: EC50
ZR-75-1 = assay: CellTiter-Glo Viability Assay, breast cancer; type: cell-based; details: Homo sapiens, 96 h; ZR-75-1, breast cancer, four days; read-out: EC50
all 50 cell lines = assay: CellTiter-Glo Viability Assay, average across all cell lines; type: cell-based; details: Homo sapiens; across all 50 cell lines; read-out: average EC50 for inhibition of cancer cell proliferation
Outline: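 Proliferation of a multi-tissue human cancer line panel is assessed over four days at 37° C and 5% CO2, seeding 300-3,000 cells/well. Viability is quantified by CellTiter-Glo luminescence, and EC50 values are calculated.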

[1] = tested on: colorectal cancer (6 cell lines); assay: CellTiter-Glo Viability Assay, colorectal cancer; type: cell-based; details: Homo sapiens, inhibition of cancer cell proliferation
[2] = tested on: haematopoietic & lymphoid tumors (13 cell lines); assay: CellTiter-Glo Viability Assay, haematopoietic & lymphoid tumors; type: cell-based; details: Homo sapiens, inhibition of cancer cell proliferation
[3] = tested on: liver cancer (3 cell lines); assay: CellTiter-Glo Viability Assay, liver cancer; type: cell-based; details: Homo sapiens, inhibition of cancer cell proliferation
[4] = tested on: lung cancer (4 cell lines); assay: CellTiter-Glo Viability Assay, lung cancer; type: cell-based; details: Homo sapiens, inhibition of cancer cell proliferation
[5] = tested on: ovarian cancer (4 cell lines); assay: CellTiter-Glo Viability Assay, ovarian cancer; type: cell-based; details: Homo sapiens, inhibition of cancer cell proliferation
[6] = tested on: pancreatic cancer (8 cell lines); assay: CellTiter-Glo Viability Assay, pancreatic cancer; type: cell-based; details: Homo sapiens, inhibition of cancer cell proliferation
[7] = tested on: prostate cancer (5 cell lines); assay: CellTiter-Glo Viability Assay, prostate cancer; type: cell-based; details: Homo sapiens
CLK3 = CLK3 (Homo sapiens, UniProt P49761); assay: CLK3 kinase activity assay (Z-lyte, Ser/Thr 18 peptide)
[8] = HCT-116, HCT116 cell line, read-out: Colorectal cancer, EC50 (μM) HCT116
[9] = HT-29, HT29 cell line, read-out: Colorectal cancer, EC50 (μM) HT29
[10] = SW-620, SW620 cell line, read-out: Colorectal cancer, EC50 (μM) SW620
[11] = DLD-1 cell line, read-out: Colorectal cancer, EC50 (μM) DLD-1
[12] = SW48 cell line, read-out: Colorectal cancer, EC50 (μM) SW48
[13] = SW480 cell line, read-out: Colorectal cancer, EC50 (μM) SW480
[14] = DND41, DND-41 cell line, read-out: Haematopoietic & Lymphoid tumors, EC50 (μM) DND-41
[15] = MV4-11, MV-4-11 cell line, read-out: Haematopoietic & Lymphoid tumors, EC50 (μM) MV-4-11
[16] = Rec1, REC-1 cell line, read-out: Haematopoietic & Lymphoid tumors, EC50 (μM) REC-1
[17] = SU-DHL-4, SUDHL4 cell line, read-out: Haematopoietic & Lymphoid tumors, EC50 (μM) SUDHL4
[18] = HL-60 cell line, read-out: Haematopoietic & Lymphoid tumors, EC50 (μM) HL-60
[19] = JM1 cell line, read-out: Haematopoietic & Lymphoid tumors, EC50 (μM) JM1
[20] = JURKAT, Clone E6-1 cell line, read-out: Haematopoietic & Lymphoid tumors, EC50 (μM) JURKAT, Clone E6-1
[21] = JeKo-1 cell line, read-out: Haematopoietic & Lymphoid tumors, EC50 (μM) JeKo-1
[22] = KASUMI-1 cell line, read-out: Haematopoietic & Lymphoid tumors, EC50 (μM) KASUMI-1
[23] = Loucy cell line, read-out: Haematopoietic & Lymphoid tumors, EC50 (μM) Loucy
[24] = MOLT-4 cell line, read-out: Haematopoietic & Lymphoid tumors, EC50 (μM) MOLT-4
[25] = TF-1 cell line, read-out: Haematopoietic & Lymphoid tumors, EC50 (μM) TF-1
[26] = TOLEDO cell line, read-out: Haematopoietic & Lymphoid tumors, EC50 (μM) TOLEDO
[27] = SNU-398, SNU398 cell line, read-out: Liver cancer, EC50 SNU398
[28] = HEPG2 cell line, read-out: Liver cancer, EC50 HEPG2
[29] = PLC/PRF/5 cell line, read-out: Liver cancer, EC50 PLC/PRF/5
[30] = A-427, A427 cell line, read-out: Lung cancer, EC50 (μM) A427
[31] = HCC78, HCC-78 cell line, read-out: Lung cancer, EC50 (μM) HCC-78
[32] = NCI-H460 cell line, read-out: Lung cancer, EC50 (μM) NCI-H460
[33] = NCI-H522 cell line, read-out: Lung cancer, EC50 (μM) NCI-H522
[34] = PA-1, PA1 cell line, read-out: Ovarian cancer, EC50 (μM) PA1
[35] = TOV112D, TOV-112D cell line, read-out: Ovarian cancer, EC50 (μM) TOV-112D
[36] = OV-90 cell line, read-out: Ovarian cancer, EC50 (μM) OV-90
[37] = OVCAR-3 cell line, read-out: Ovarian cancer, EC50 (μM) OVCAR-3
[38] = BXPC-3, BxPC3 cell line, read-out: Pancreatic cancer, EC50 BxPC3
[39] = CAPAN-1, Capan1 cell line, read-out: Pancreatic cancer, EC50 Capan1
[40] = Capan-2, Capan2 cell line, read-out: Pancreatic cancer, EC50 Capan2
[41] = MIA PaCa-2 cell line, read-out: Pancreatic cancer, EC50 MIA PaCa-2
[42] = PANC 05.04 cell line, read-out: Pancreatic cancer, EC50 PANC 05.04
[43] = PANC-1 cell line, read-out: Pancreatic cancer, EC50 PANC-1
[44] = UPAFII cell line, read-out: Pancreatic cancer, EC50 UPAFII
[45] = DU-145, read-out: Prostate cancer EC50 Du-145
[46] = PC-3, PC3 cell line, inhibition of cancer cell proliferation, read-out: Prostate cancer EC50 PC3
[47] = 22Rv1 cell line, inhibition of cancer cell proliferation, read-out: Prostate cancer EC50 22Rv1
[48] = LNCap clone FGC cell line, inhibition of cancer cell proliferation, read-out: Prostate cancer EC50 LNCap clone FGC
[49] = VCaP (Sigma) cell line, inhibition of cancer cell proliferation, read-out: Prostate cancer EC50 VCaP (Sigma)

T1 sequence (P49760 whole entry): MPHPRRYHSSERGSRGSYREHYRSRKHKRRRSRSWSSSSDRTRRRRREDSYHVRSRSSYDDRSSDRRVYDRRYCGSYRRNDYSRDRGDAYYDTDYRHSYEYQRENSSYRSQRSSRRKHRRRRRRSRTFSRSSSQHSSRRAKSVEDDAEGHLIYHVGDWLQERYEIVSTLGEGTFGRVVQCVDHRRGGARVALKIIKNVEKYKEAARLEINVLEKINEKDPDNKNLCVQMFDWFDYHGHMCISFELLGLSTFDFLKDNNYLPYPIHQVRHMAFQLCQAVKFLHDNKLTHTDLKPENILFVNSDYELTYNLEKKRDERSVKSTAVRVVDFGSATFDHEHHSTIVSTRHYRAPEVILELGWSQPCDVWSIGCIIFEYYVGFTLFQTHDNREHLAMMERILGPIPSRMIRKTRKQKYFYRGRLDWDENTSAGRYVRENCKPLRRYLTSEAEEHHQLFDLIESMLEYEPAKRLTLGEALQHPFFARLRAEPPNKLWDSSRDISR
CLK3, sequence (P49761 whole entry): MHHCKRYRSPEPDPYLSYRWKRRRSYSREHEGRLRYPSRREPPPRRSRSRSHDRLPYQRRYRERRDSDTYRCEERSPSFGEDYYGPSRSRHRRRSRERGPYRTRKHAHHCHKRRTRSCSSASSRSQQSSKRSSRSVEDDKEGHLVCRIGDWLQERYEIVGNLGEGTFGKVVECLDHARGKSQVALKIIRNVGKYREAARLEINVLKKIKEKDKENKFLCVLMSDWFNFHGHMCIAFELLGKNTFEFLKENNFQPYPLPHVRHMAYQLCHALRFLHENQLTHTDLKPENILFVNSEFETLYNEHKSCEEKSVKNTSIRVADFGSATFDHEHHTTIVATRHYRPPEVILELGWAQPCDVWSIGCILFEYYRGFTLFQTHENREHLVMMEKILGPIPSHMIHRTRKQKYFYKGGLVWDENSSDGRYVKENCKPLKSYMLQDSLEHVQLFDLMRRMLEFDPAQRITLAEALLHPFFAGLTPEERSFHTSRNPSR

## O=C1COc2cccc(c2)-c2cncc3[nH]c(nc23)-c2n[nH]c3ccc(cc23)-c2cncc(c2)N1 [Compound 56]
CLK2
  EC50: 3.3 nM
BT-549
  EC50: 328 nM
CAMA1
  EC50: 1530 nM
DU4475
  EC50: 42 nM
HCC1599
  EC50: 248 nM
MCF7
  EC50: > 10000 nM
MDA-MB-231-Luc
  EC50: 6630 nM
T47D
  EC50: 3220 nM
ZR-75-1
  EC50: 6900 nM
All 50 cell lines
  EC50: 5060 nM
[1]; [8]
  EC50: 3.81 µM
[1]; [9]
  EC50: > 10 µM
[1]; [10]
  EC50: 1.09 µM
[1]; [11]
  EC50: 9.99 µM
[1]; [12]
  EC50: 5.05 µM
[1]; [13]
  EC50: 1.38 µM
[2]; [14]
  EC50: 0.959 µM
[2]; [15]
  EC50: 0.121 µM
[2]; [16]
  EC50: 5.51 µM
[2]; [17]
  EC50: 0.365 µM
[2]; [18]
  EC50: 3.21 µM
[2]; [19]
  EC50: 0.394 µM
[2]; [20]
  EC50: > 10 µM
[2]; [21]
  EC50: 0.39 µM
[2]; [22]
  EC50: 0.767 µM
[2]; [23]
  EC50: 0.485 µM
[2]; [24]
  EC50: > 10 µM
[2]; [25]
  EC50: > 10 µM
[2]; [26]
  EC50: 0.402 µM
[3]; [27]
  EC50: 160 nM
[3]; [28]
  EC50: > 10000 nM
[3]; [29]
  EC50: > 10000 nM
[4]; [30]
  EC50: 1.31 µM
[4]; [31]
  EC50: > 10 µM
[4]; [32]
  EC50: > 10 µM
[4]; [33]
  EC50: 0.224 µM
[5]; [34]
  EC50: 0.767 µM
[5]; [35]
  EC50: 1.45 µM
[5]; [36]
  EC50: > 10 µM
[5]; [37]
  EC50: 0.436 µM
[6]; [38]
  EC50: > 10000 nM
[6]; [39]
  EC50: 3620 nM
[6]; [40]
  EC50: > 10000 nM
[6]; [41]
  EC50: 697 nM
[6]; [42]
  EC50: > 10000 nM
[6]; [43]
  EC50: > 10000 nM
[6]; [44]
  EC50: > 10000 nM
[7]; [45]
  EC50: > 10000 nM
[7]; [46]
  EC50: 3370 nM
[7]; [47]
  EC50: 7900 nM
[7]; [48]
  EC50: > 10000 nM
[7]; [49]
  EC50: > 10000 nM
CLK3
  EC50: 16.3 nM

## CN1CCCCN(C)c2nccc3[nH]c(nc23)-c2n[nH]c3ccc(cc23)-c2cncc(c2)C1 [Compound 58]
CLK2
  EC50: 1.6 nM
BT-549
  EC50: 480 nM
CAMA1
  EC50: 1020 nM
DU4475
  EC50: 131 nM
HCC1599
  EC50: 379 nM
MCF7
  EC50: 1810 nM
MDA-MB-231-Luc
  EC50: 505 nM
T47D
  EC50: 1240 nM
ZR-75-1
  EC50: 519 nM
All 50 cell lines
  EC50: 441 nM
[1]; [8]
  EC50: 0.15 µM
[1]; [9]
  EC50: 0.455 µM
[1]; [10]
  EC50: 0.066 µM
[1]; [11]
  EC50: 0.132 µM
[1]; [12]
  EC50: 0.057 µM
[1]; [13]
  EC50: 0.165 µM
[2]; [14]
  EC50: 0.106 µM
[2]; [15]
  EC50: 0.013 µM
[2]; [16]
  EC50: 0.089 µM
[2]; [17]
  EC50: 0.074 µM
[2]; [18]
  EC50: 1.13 µM
[2]; [19]
  EC50: 0.032 µM
[2]; [20]
  EC50: 0.271 µM
[2]; [21]
  EC50: 0.067 µM
[2]; [22]
  EC50: 0.185 µM
[2]; [23]
  EC50: 0.145 µM
[2]; [24]
  EC50: 0.314 µM
[2]; [25]
  EC50: 0.921 µM
[2]; [26]
  EC50: 0.065 µM
[3]; [27]
  EC50: 31 nM
[3]; [28]
  EC50: 2110 nM
[3]; [29]
  EC50: 1600 nM
[4]; [30]
  EC50: 0.177 µM
[4]; [31]
  EC50: 0.9 µM
[4]; [32]
  EC50: 0.454 µM
[4]; [33]
  EC50: 0.103 µM
[5]; [34]
  EC50: 0.147 µM
[5]; [35]
  EC50: 0.292 µM
[5]; [36]
  EC50: 0.847 µM
[5]; [37]
  EC50: 0.162 µM
[6]; [38]
  EC50: 462 nM
[6]; [39]
  EC50: 323 nM
[6]; [40]
  EC50: 249 nM
[6]; [41]
  EC50: 120 nM
[6]; [42]
  EC50: 752 nM
[6]; [43]
  EC50: 578 nM
[6]; [44]
  EC50: 190 nM
[7]; [45]
  EC50: 179 nM
[7]; [46]
  EC50: 313 nM
[7]; [47]
  EC50: 121 nM
[7]; [48]
  EC50: 1060 nM
[7]; [49]
  EC50: 350 nM
CLK3
  EC50: 11.9 nM
